From patent publication US11883387B2, “PqsR inverse agonists” (HELMHOLTZ-ZENTRUM FÜR INFEKTIONSFORSCHUNG GMBH, priority 2018, dated 2024)

Assays:
[1] = Metabolic stability in mouse liver microsomes (MLM); type: in vitro ADME; conditions: 1 μM compound, 0.5 mg/mL MLM, 1 mM NADPH, 37° C., read-out: half-life (t1/2) towards MLM
Method: For the evaluation of phase I metabolic stability, the compound (1 μM) was incubated with 0.5 mg/mL MLM (Corning) and 1 mM NADPH at 37° C. for 0, 5, 10, 15 and 30 min. The metabolic stability of Verapamil, Diphenhydramine and Benzydamine (1 μM each) were determined in parallel to confirm the enzymatic activity of the MLM. The incubation was stopped by addition of 2 volumes of acetonitrile containing internal standard (1 μM Leucine Enkephaline). Samples were centrifuged (15 min, 3,500 rpm). Concentration of the remaining test compound at the different time points was analyzed by HPLC-MS/MS and used to determine half-life (t1/2).

[2] = Kinetic Turbidimetric Aqueous Solubility at room temperature for 5 min; type: physicochemical; conditions: PBS buffer, kinetic from dmso stock, 2% DMSO
Method: Kinetic Turbidimetric Aqueous Solubility at room temperature for 5 min. Test compound was diluted in PBS buffer to give a range of concentrations (typically 0.4, 2, 4, 20, 40, 100, and 200 μM, final DMSO concentration 2%) and incubated at room temperature for 5 min. Absorbance was measured at a wavelength of 620 nm and the solubility was estimated from the concentration of test compound that produces an increase in absorbance above the vehicle control (i.e., […]). Data was analyzed by fitting a four parameter sigmoidal function to the measured and normalized absorbances and AUC calculation providing access to Log S (decadic logarithm of the solubility).

[3] = target: PqsR (Pseudomonas aeruginosa, UniProt Q9I4X0); assay: E. coli based β-galactosidase reporter gene assay (PqsR inverse agonistic activity); type: cell-based; set-up: expressed in transfected cells; host or cells: Escherichia coli DH5α
Summary of the method: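 E. coli DH5α carrying pEAL08-2 (tac-driven pqsR with pqsA-lacZ) was grown to OD600 0.2 and incubated with 0.001–10 μM compound plus 50 nM PQS for 2.5 h at 37 °C. β-Galactosidase activity was measured by ONPG conversion in permeabilized cells and normalized between the no-PQS and solvent controls. IC50 came from concentration variation.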

[4] = test system: P. aeruginosa pyocyanin production; assay: Pyocyanin assay; type: cell-based, P. aeruginosa PA14; conditions: Pseudomonas aeruginosa, PA14, 16 h, read-out: IC50-value towards pyocyanin production, PA14 in PPGAS medium, 16 h
Summary of the method: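 PA14 in PPGAS medium from OD600 0.02 grown 16 h at 37 °C, 200 rpm, with compounds. Pyocyanin extracted with chloroform, back-extracted into 0.2 M HCl, OD520 normalised to OD600.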

Sequence of PqsR (Q9I4X0 whole entry): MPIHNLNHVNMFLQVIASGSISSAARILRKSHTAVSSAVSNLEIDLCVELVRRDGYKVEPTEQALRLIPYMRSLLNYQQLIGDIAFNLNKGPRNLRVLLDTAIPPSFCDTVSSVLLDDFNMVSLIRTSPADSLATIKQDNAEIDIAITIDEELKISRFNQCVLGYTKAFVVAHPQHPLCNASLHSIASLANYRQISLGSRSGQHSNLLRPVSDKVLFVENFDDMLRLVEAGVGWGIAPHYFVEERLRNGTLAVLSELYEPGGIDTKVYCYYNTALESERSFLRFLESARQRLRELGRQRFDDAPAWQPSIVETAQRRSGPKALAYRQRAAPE

Compound	half-life at 1 μM [1] [h]	solubility at 5 min [2] [µM]	IC50 [3] [nM]	IC50 [4] [nM]
N#Cc1cc(NCc2cn(-c3ccc(Oc4ccccc4)cc3)nn2)ccn1 [Compound 041, 4-(((1-(4-Phenoxyphenyl)-1H-1,2,3-triazol-4-yl)methyl)amino)picolinonitrile]	0.517 to 1	> 10	≤ 50	
FC(F)(F)c1cc(NCc2cnc(-c3ccc(Cl)nc3)s2)ccn1 [Compound 073, N-((2-(6-Chloropyridin-3-yl)thiazol-5-yl)methyl)-2-(trifluoromethyl)pyridin-4-amine]	> 1	≥ 100	51 to 250	1000 to 5000
FC(F)(F)c1cc(NCc2ccc(-c3cnc(Cl)c(Cl)c3)cn2)ccn1 [Compound 102, N-((5′,6′-Dichloro-[3,3′-bipyridin]-6-yl)methyl)-2-(trifluoromethyl)pyridin-4-amine]	0.517 to 1	> 50	51 to 250	251 to 1000
FC(F)(F)c1cc(NCc2cn(-c3ccc(-n4ccc5ccccc54)cc3)nn2)ccn1 [Compound 040, N-((1-(4-(1H-Indol-1-yl)phenyl)-1H-1,2,3-triazol-4-yl)methyl)-2-(trifluoromethyl)pyridin-4-amine]	0.517 to 1	> 25	51 to 250	251 to 1000
FC(F)(F)c1cc(NCc2cn(-c3ccc(-n4cnc5ccccc54)cc3)nn2)ccn1 [Compound 045, N-((1-(4-(1H-benzo[d]imidazol-1-yl)phenyl)-1H-1,2,3-triazol-4-yl)methyl)-2-(trifluoromethyl)pyridin-4-amine]	0.517 to 1	> 25	51 to 250	1000 to 5000
Nc1cc(SCc2cnc(-c3ccc(Oc4ccccc4)cc3)s2)nc(C(F)(F)F)n1 [Compound 068, 6-(((2-(4-phenoxyphenyl)thiazol-5-yl)methyl)thio)-2-(trifluoromethyl)pyrimidin-4-amine]	> 1	> 10		
FC(F)(F)c1cc(NCc2nc3cc(Cl)c(Cl)cc3[nH]2)ccn1 [Compound 121, N-((5,6-Dichloro-1H-benzo[d]imidazol-2-yl)methyl)-2-(trifluoromethyl)pyridin-4-amine]	0.517 to 1	≥ 100	251 to 1000	
Fc1ccc(Oc2ccc3[nH]c(CNc4ccnc(C(F)(F)F)c4)nc3c2)cc1 [Compound 172, N-((5-(4-fluorophenoxy)-1H-benzo[d]imidazol-2-yl)methyl)-2-(trifluoromethyl)pyridin-4-amine]	0.517 to 1	> 25		251 to 1000
FC(F)(F)c1cc(NCc2ccc(-c3ccc(Cl)nc3)cn2)ccn1 [Compound 098, N-((6′-Chloro-[3,3′-bipyridin]-6-yl)methyl)-2-(trifluoromethyl)pyridin-4-amine]	> 1	≥ 100	51 to 250	
FC(F)(F)c1cc(NCc2cc(-c3ccc(Oc4ccccc4)cc3)no2)ccn1 [Compound 139, N-((3-(4-phenoxyphenyl)isoxazol-5-yl)methyl)-2-(trifluoromethyl)pyridin-4-amine]	0.517 to 1		≤ 50	
FC(F)(F)c1cc(NCc2ccc(-c3cccc(Oc4ccccc4)c3)cn2)ccn1 [Compound 103, N-((5-(3-Phenoxyphenyl)pyridin-2-yl)methyl)-2-(trifluoromethyl)pyridin-4-amine]	0.517 to 1		251 to 1000	1000 to 5000
COc1ccc(-c2ncc(CSc3cc(N)nc(C(F)(F)F)n3)s2)cc1Cl [Compound 069, 6-(((2-(3-chloro-4-methoxyphenyl)thiazol-5-yl)methyl)thio)-2-(trifluoromethyl) pyrimidin-4-amine]	> 1	> 25		
Nc1cc(OCc2nc3cc(Oc4ccccc4)ccc3[nH]2)nc(C(F)(F)F)n1 [Compound 181, 6-((5-phenoxy-1H-benzo[d]imidazol-2-yl)methoxy)-2-(trifluoromethyl)pyrimidin-4-amine]	> 1	> 50	51 to 250	
FC(F)(F)c1cc(NCc2cn(-c3ccc(Oc4ccccc4)cc3)nn2)cc(I)n1 [Compound 007, 2-Iodo-N-((1-(4-phenoxyphenyl)-1H-1,2,3-triazol-4-yl)methyl)-6-(trifluoromethyl)pyridin-4-amine]	0.517 to 1		≤ 50	251 to 1000
O=C(c1ccccc1)c1ccc(-n2cc(CSc3ccnc(C(F)(F)F)c3)nn2)cc1 [Compound 057, Phenyl(4-(4-(((2-(trifluoromethyl)pyridin-4-yl)thio)methyl)-1H-1,2,3-triazol-1-yl)phenyl)methanone]	> 1		51 to 250	
FC(F)(F)c1cc(NCc2cn(-c3ccc(Br)cc3)nn2)ccn1 [Compound 039, N-((1-(4-Bromophenyl)-1H-1,2,3-triazol-4-yl)methyl)-2-(trifluoromethyl)pyridin-4-amine]	0.517 to 1	> 50	251 to 1000	
FC(F)(F)c1cc(NCc2ccc(-c3ccc(Oc4ccccc4)nc3)cn2)ccn1 [Compound 100, N-((6′-Phenoxy-[3,3′-bipyridin]-6-yl)methyl)-2-(trifluoromethyl)pyridin-4-amine]	0.517 to 1	> 25	51 to 250	
Fc1ccc(Oc2ccc(-c3nc(CNc4ccnc(C(F)(F)F)c4)cs3)cn2)cc1 [Compound 083, N-((2-(6-(4-Fluorophenoxy)pyridin-3-yl)thiazol-4-yl)methyl)-2-(trifluoromethyl)pyridin-4-amine]	> 1		51 to 250	
Clc1cc(NCc2cn(-c3ccc(Oc4ccccc4)cc3)nn2)cc(Cl)n1 [Compound 048, 2,6-Dichloro-N-((1-(4-phenoxyphenyl)-1H-1,2,3-triazol-4-yl)methyl)pyridin-4-amine]	0.517 to 1		≤ 50	≤ 250
Clc1cc(NCc2cnc(-c3ccc(Oc4ccccc4)cc3)s2)ccn1 [Compound 093, 2-Chloro-N-((2-(4-phenoxyphenyl)thiazol-5-yl)methyl)pyridin-4-amine]	0.517 to 1		≤ 50	251 to 1000
FC(F)(F)c1cc(NCc2cn(-c3ccc(Oc4ccc(Cl)cc4)cc3)nn2)ccn1 [Compound 037, N-((1-(4-(4-Chlorophenoxy)phenyl)-1H-1,2,3-triazol-4-yl)methyl)-2-(trifluoromethyl)pyridin-4-amine]	> 1	> 10	≤ 50	
Fc1ccc(Oc2ccc(-c3nc(CNc4ccnc(C(F)(F)F)c4)cs3)cc2)cc1 [Compound 088, N-((2-(4-(4-Fluorophenoxy)phenyl)thiazol-4-yl)methyl)-2-(trifluoromethyl)pyridin-4-amine]	> 1		≤ 50	
FC(F)(F)c1cc(NCc2cnc(-c3ccc(Oc4ccccc4)cc3)s2)cc(Cl)n1 [Compound 092, 2-Chloro-N-((2-(4-phenoxyphenyl)thiazol-5-yl)methyl)-6-(trifluoromethyl)pyridin-4-amine]	0.517 to 1		≤ 50	251 to 1000
FC(F)(F)c1cc(NCc2cn(-c3ccc(Oc4ccccc4)cc3)nn2)cc(Cl)n1 [Compound 032, 2-Chloro-N-((1-(4-phenoxyphenyl)-1H-1,2,3-triazol-4-yl)methyl)-6-(trifluoromethyl)pyridin-4-amine]	> 1		≤ 50	
FC(F)(F)c1cc(NCc2cn(-c3ccc(Oc4cccc(Cl)c4)cc3)nn2)ccn1 [Compound 030, N-((1-(4-(3-Chlorophenoxy)phenyl)-1H-1,2,3-triazol-4-yl)methyl)-2-(trifluoromethyl)pyridin-4-amine]	> 1		≤ 50	
CC(C)Oc1ccc(-n2cc(CNc3ccnc(C(F)(F)F)c3)nn2)cc1Cl [Compound 036, N-((1-(3-Chloro-4-isopropoxyphenyl)-1H-1,2,3-triazol-4-yl)methyl)-2-(trifluoromethyl)pyridin-4-amine]		> 25	≤ 50	≤ 250
COc1ccc(-c2ccc(CNc3ccnc(C(F)(F)F)c3)nc2)cc1Cl [Compound 104, N-((5-(3-Chloro-4-methoxyphenyl)pyridin-2-yl)methyl)-2-(trifluoromethyl)pyridin-4-amine]		> 10	51 to 250	1000 to 5000
